Results published in ChEMBL document CHEMBL5523718, “Design, synthesis, molecular modeling, in vitro and in vivo biological evaluation of potent anthranilamide derivatives as dual P-glycoprotein and CYP3A4 inhibitors” (Eur J Med Chem, 2024).
Values after ≈ are worked out from the molar mass of the structure shown.

Columns and labels:
Cytochrome P450 3A4 [1] = target: T1, Cytochrome P450 3A4 (Homo sapiens, UniProt P08684); assay: Inhibition of CYP3A4 in human liver using luciferin-IPA as substrate microsome preincubated with compound for 10 mins followed by NADPH addition and measured after 5 mins; format: ADME, microsomes
T1 sequence (P08684 whole entry): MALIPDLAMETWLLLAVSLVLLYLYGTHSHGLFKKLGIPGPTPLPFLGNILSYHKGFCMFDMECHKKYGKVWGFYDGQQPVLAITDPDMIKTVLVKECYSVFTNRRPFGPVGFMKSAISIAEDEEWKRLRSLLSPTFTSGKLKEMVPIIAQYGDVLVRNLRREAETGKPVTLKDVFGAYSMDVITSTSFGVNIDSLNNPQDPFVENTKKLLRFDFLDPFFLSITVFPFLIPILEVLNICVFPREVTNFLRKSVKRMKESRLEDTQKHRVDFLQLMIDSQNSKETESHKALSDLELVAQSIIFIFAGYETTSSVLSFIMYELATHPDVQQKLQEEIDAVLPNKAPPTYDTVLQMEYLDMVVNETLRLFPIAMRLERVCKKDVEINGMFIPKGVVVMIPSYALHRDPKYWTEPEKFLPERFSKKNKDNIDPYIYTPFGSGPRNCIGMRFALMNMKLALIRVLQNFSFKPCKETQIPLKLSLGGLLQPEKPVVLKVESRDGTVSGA

Cytochrome P450 1A2 = target: T2, Cytochrome P450 1A2 (Homo sapiens, UniProt P05177); assay: Inhibition of CYP1A2 (unknown origin) using Phenacetin as substrate; format: ADME
T2 sequence (P05177 whole entry): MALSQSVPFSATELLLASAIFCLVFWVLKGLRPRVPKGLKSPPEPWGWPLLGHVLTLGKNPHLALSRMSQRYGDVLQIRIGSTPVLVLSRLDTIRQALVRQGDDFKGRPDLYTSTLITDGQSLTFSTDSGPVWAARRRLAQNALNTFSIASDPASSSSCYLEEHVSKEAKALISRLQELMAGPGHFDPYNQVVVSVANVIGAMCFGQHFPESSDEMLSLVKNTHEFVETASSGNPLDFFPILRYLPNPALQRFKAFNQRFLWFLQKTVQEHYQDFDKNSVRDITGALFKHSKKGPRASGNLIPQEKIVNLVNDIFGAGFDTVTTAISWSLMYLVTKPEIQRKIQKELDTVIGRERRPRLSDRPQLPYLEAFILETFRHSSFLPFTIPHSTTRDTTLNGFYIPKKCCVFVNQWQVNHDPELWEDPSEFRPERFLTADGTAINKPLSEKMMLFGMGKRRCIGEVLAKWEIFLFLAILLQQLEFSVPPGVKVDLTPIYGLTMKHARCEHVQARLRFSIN

Cytochrome P450 3A4 [2] = target: T1, Cytochrome P450 3A4; assay: Inhibition of CYP3A4 in human Hepatocyte using Luciferin-IPA as substrate; format: ADME, cell-based
[3] = Inhibition of MRP1 (unknown origin) ATPase activity; set-up: species or system Homo sapiens
Cytochrome P450 3A4 [4] = target: T1, Cytochrome P450 3A4; assay: Inhibition of CYP3A4 (unknown origin) using Midazolam as substrate; format: ADME
[5] = Metabolic stability in monkey liver microsome assessed as half life; format: ADME, Macaca mulatta; details: rhesus monkey, liver microsomes
[6] = Apparent permeability of compound across apical to basolateral side in human Caco-2 cells; format: ADME, cell-based
[7] = Metabolic stability in rat liver microsome assessed as half life; format: ADME; details: liver microsomes
[8] = Metabolic stability in human liver microsome assessed as intrinsic clearance; format: ADME; details: microsomes
[9] = Equilibrium solubility of compound in PBS at pH 7.4; format: physicochemical; details: PBS
[10] = Apparent permeability across apical to basolateral side in human Caco-2 cells assessed as drug recovery; format: ADME, cell-based; details: read-out: Drug recovery
[11] = Apparent permeability across basolateral to apical side in human Caco-2 cells assessed as drug recovery; format: ADME, cell-based; details: read-out: Drug recovery
[12] = Inhibition of CYP3A4 in monkey liver using luciferin-IPA as substrate microsome preincubated with compound for 10 mins followed by NADPH addition and measured after 5 mins; format: ADME, microsomes, Macaca mulatta
[13] = Metabolic stability in mouse liver microsome assessed as half life; format: ADME; details: liver microsomes

COc1cc(NC(=O)c2cc(=O)c3ccccc3o2)c(C(=O)Nc2ccc(C3CCN(Cc4cccc(-n5ccnc5)c4)CC3)cc2)cc1OC
IC50 (Cytochrome P450 3A4 [1]): 223 nM
IC50 (Cytochrome P450 1A2): > 100000 nM
IC50 (Cytochrome P450 3A4 [2]): 1470 nM
IC50 [3]: > 10000 nM
IC50 (Cytochrome P450 3A4 [4]): 140 nM
half-life [5]: 4.9 min
Papp A→B [6]: < 0.06 ×10⁻⁶ cm/s
half-life [7]: 15 min
CLH [8]: 300 µL/min/mg
solubility thermodynamic [9]: 0.57 µM (≈ 0.39 µg/mL)
recovery [10]: 82%
recovery [11]: 82%
IC50 [12]: 140 nM
half-life [13]: 37 min
